Where two headings read alike, the source gives them in different places. One block for each molecule: values may come before it.
How the values were obtained:
[1] = Blood clearance in rats monitored by fluorescence from ear capillaries; details: rat, injected through lateral tail vein; excitation 780 nm, emission 830 nm
Procedure: A 500 μL portion of indocyanine green solution (0.8 mg/mL) was injected through the lateral tail vein of Sprague-Dawley or Fischer rats. Blood clearance of the dye bioconjugate was monitored by fluorescence signal emanating from the capillaries of the ear surface using a laser fluorescence apparatus (excitation, 780 nm; emission 830 nm).

[2] = 822 nanometers, ambient temperature, aqueous solution
Procedure: An aqueous solution of indocyanine green (ICG) and the carriers, inulin, poly-d,l-aspartic acid, polyguanylic acid, MBSA, and γ-cyclodextrin were prepared and the fluorescence intensity was monitored at ambient temperature at various time intervals.

[3] = in vivo; cited from earlier work
[4] = cited from earlier work
[5] = Stability of cyanine blue dye and conjugates in aqueous solution, fluorescence intensity at 670 nm; type: physicochemical; details: 670 nanometers, ambient temperature
[6] = Stability of carboxyphloroglucinol-squaraine dye and bioconjugates in aqueous solution, fluorescence intensity at 613 nm; type: physicochemical; details: 613 nanometers (λex=515), ambient temperature
[7] = Stability of benzothiazolim-squaraine dye and bioconjugates in aqueous solution, fluorescence intensity at 665 nm; type: physicochemical; details: 665 nanometers, ambient temperature

SMILES: CC1(C)C(/C=C/C=C/C=C/C=C2/N(CCCCS(=O)(=O)O)c3ccc4ccccc4c3C2(C)C)=[N+](CCCCS(=O)(=O)O)c2ccc3ccccc3c21.[Na+].[Na+] [indocyanine green, Indocyanine Green Dye]
time constant (τ) for blood clearance [1]: 138 s | Percent Decrease in Fluorescence ([2]; 2 Hours): 0% | Percent Decrease in Fluorescence ([2]; 4 Hours): 19% | Percent Decrease in Fluorescence ([2]; 24 Hours): 48% | plasma half-life [3]: very short | uptake by the liver [3]: rapidly taken up by the liver | degradation in aqueous media [4]: undergoes degradation in aqueous media with loss of fluorescence

Percent Decrease in Fluorescence ([5]; 2 Hours): 20% | Percent Decrease in Fluorescence ([5]; 4 Hours): 42% | Percent Decrease in Fluorescence ([5]; 24 Hours): 99%
SMILES: O=C(O)CN1/C(=C/C=C/C=C/c2sc3ccccc3[n+]2CC(=O)O)Sc2ccccc21 [Cyanine Blue Dye/Water, Cyanine Blue Dye]

Percent Decrease in Fluorescence ([6]; 2 Hours): 13% | Percent Decrease in Fluorescence ([6]; 4 Hours): 13% | Percent Decrease in Fluorescence ([6]; 24 Hours): 50%
SMILES: O=C(O)C1=C(O)/C(=C2/C(=O)C(c3c(O)cc(O)c(C(=O)O)c3O)=C2O)C(O)=CC1=O [Carboxyphloroglucinol Squaraine Dye]

Percent Decrease in Fluorescence ([7]; 2 Hours): 92% | Percent Decrease in Fluorescence ([7]; 4 Hours): 64% | Percent Decrease in Fluorescence ([7]; 24 Hours): 46%
SMILES: O=C(O)CN1/C(=C/C2=C(O)C(=C/c3sc4ccccc4[n+]3CC(=O)O)/C2=O)Sc2ccccc21 [Benzothiazolim Dye/Water, Benzothiazolium Squaraine Dye]

Source: patent publication US6423547B1, “Non-covalent bioconjugates useful for diagnosis and therapy” (Mallinckrodt Inc., priority 1998, dated 2002)
